This passage reports HDL-C change results from ChEMBL document CHEMBL1134163, “Design and synthesis of tricyclic derivatives as high density lipoprotein cholesterol enhancers” (2001).

In this assay the test system is Rattus norvegicus. Description: Average percentage HDLC change in 6 cholesterol cholic acid-fed male rats (versus control) after treatment for 8 days at a dose of 100 mg/kg/day. Type of assay: functional.
As for `O=C1c2ccccc2C(O)(c2ccc(F)cc2)C2=NCCN12` (stereo not drawn), the HDL-C change was found to be 0%.

As to `CC1(C)CN2C(=O)c3ccccc3C(O)(c3ccccc3)C2=N1` (stereo not drawn), the HDL-C change was determined as 55%.

`O=C1c2ncccc2C(O)(c2ccc(Cl)cc2)C2=NCCN12` (stereo not drawn) gave an HDL-C change of 49%.

`O=C1c2ccccc2C(O)(c2ccc(F)cc2)C2=NC3(CCCC3)CN12` (stereo not drawn): the HDL-C change came to 21%.

For `O=C1c2ccccc2C(O)(c2ccc(F)cc2)C2=NCCCN12` (stereo not drawn), the HDL-C change came out at 22%.

Consider `C[C@@H]1CN2C(=O)c3ccccc3[C@@](O)(c3ccc(F)cc3)C2=N1`, for which the HDL-C change came to 105%.

Compound `CC1(C)CN2C(=O)c3ccccc3C(O)(c3ccc(F)cc3)C2=N1` (stereo not drawn) gave an HDL-C change of 90%.

With `C[C@@H]1CN2C(=O)c3ccccc3C(O)(c3ccc(F)cc3)C2=N1` (single isomer, unassigned), the HDL-C change turned out to be 38%.
